Read-outs that look alike come from different tables or passages of the source. Square brackets hold non-standard residues; d marks the D form. Peptide text beside a SMILES is read from it. * marks the point of attachment. X13 = COc1ccc2c3c1O[C@H]1C(NC(=O)CNC(=O)CCSC4CC(=O)N(CCCCCCN5C(=O)CC(*)C5=O)C4=O)CC[C@@]4(O)[C@@H](C2)N(C)CC[C@]314; X9 = COc1ccc2c3c1O[C@H]1C(NCCSC4CC(=O)N(CCCCCCN5C(=O)CC(*)C5=O)C4=O)CC[C@@]4(O)[C@@H](C2)N(C)CC[C@]314; X1 = CN1CC[C@]23c4c5ccc(O)c4O[C@H]2C(NCCSC2CC(=O)N(CCCCCCN4C(=O)CC(*)C4=O)C2=O)CC[C@@]3(O)[C@H]1C5; X4 = CC(C)(C)c1ccc(C(C)(C)C(=O)Oc2ccc(S(=O)(=O)CCCC(=O)OCCCCCCN3C(=O)CC(*)C3=O)cc2)cc1; X7 = COc1ccc2c(c1)c(CC(=O)OCCCCCCN1C(=O)CC(*)C1=O)c(C)n2C(=O)c1ccc(Cl)cc1; Oic = O=C(O)[C@@H]1C[C@@H]2CCCC[C@@H]2N1; Hyp = O=C(O)[C@@H]1C[C@@H](O)CN1; dTic = O=C(O)[C@H]1Cc2ccccc2CN1; 2Thi = N[C@@H](Cc1cccs1)C(=O)O; X20 = O=C1CC(*)C(=O)N1CCCCCCO

Data set [1] addresses T1, BK2-receptor (Rattus norvegicus, UniProt P25023).
T1 sequence (P25023 1-396): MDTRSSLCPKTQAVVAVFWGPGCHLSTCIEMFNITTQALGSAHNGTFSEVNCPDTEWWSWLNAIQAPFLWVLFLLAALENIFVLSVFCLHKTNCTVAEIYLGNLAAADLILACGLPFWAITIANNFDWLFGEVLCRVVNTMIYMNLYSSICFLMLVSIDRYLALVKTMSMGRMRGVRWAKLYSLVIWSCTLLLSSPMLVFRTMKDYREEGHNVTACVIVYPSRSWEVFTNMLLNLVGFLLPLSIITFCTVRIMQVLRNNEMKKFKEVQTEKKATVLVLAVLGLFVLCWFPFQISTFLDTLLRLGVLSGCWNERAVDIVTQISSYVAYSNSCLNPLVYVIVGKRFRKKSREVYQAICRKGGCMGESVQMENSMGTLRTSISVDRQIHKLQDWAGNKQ
Nature of the data set: cell-based.

In data set [2] the test system is mice injected in the hind limb foot pad with formalin. In words: mouse formalin test (model of inflammatory and neurogenic pain). In kind it is in vivo. Conditions: for narcotic / behavioral effects in the formalin test: oxymorphone: highest doses 0.9 and 3.0 umoles/kg, CP-0494: over several hours. The procedure:
In order to test the activity of these compounds in vivo, a model of inflammatory and neurogenic pain was used. This model measures the behavioral responses of mice injected in the hind limb foot pad with 50 ul of formalin. Control mice (open circles) show a characteristic bi-phasic response to the injected formalin wherein there is a short lasting initial response followed by a quiescent period which is then followed by a sustained period of hind limb licking. The licking behavior is interpreted to mean that the limb is irritated and painful. The greater the time spent licking, the more painful the stimulus.

The target of data set [3] is T1, BK2-receptor.
Data set [4] has as its target T2, purified human neutrophil elastase (HNE) (Homo sapiens, UniProt P08246).
T2 sequence (P08246 30-247 limits assumed): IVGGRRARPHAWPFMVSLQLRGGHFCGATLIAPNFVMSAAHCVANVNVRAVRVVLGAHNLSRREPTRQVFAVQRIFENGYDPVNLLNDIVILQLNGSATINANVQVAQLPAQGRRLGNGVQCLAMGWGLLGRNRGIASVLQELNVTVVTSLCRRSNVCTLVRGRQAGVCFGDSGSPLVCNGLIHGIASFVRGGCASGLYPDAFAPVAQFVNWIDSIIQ
In words: neutrophil elastase inhibition with chromogenic substrate MOS-AAPV-pNA. In kind it is biochemical.

The nature of a further data set: in vitro. As to the method:
Unfortunately, there are no established animal models that can be employed to assess combined BKAn and NEI activity in vivo. Therefore, in order to assess the potential for in vivo hydrolysis of the intact heterodimer, an in vitro "surrogate" system was employed wherein the parent heterodimer (CP-0502) was incubated with human plasma and the resulting metabolites analyzed by reverse phase HPLC.
CP-0502 was added to freshly obtained normal human plasma and allowed to incubate at 37° C. for varying amounts of time. At the designated time the samples were treated with acidified (0.1N HCl) acetonitrile in order to precipitate the plasma proteins. Aliquots (75 ul) of the supernatents were then analyzed on a Vydac C-18 reverse phase HPLC column using 24% to 80% acetonitrile gradient in 0.1% TFA. The eluent was monitored at 214 nm.

Another data set addresses mu-opiate receptor (Cavia porcellus, UniProt A0ACM8Q262). In words: electrically stimulated guinea pig ileum assay. The data set is classed as cell-based. Conditions: in vitro mu-opiate receptor agonist activity.
Data set [5] deals with rat lung parenchymal strips (cyclooxygenase dependent contraction). Nature of the data set: rat lung parenchymal strips challenged with arachidonic acid. In kind it is cell-based. The conditions noted are these: contraction in response to exogenously applied arachidonic acid. An excerpt:
As mentioned previously, for the COI to work it may need to be dissociated from the BKAn so as to allow for its intracellular penetration. Therefore, in order to evaluate the functional activity of a BKAn/COI heterodimer, CP-0460 was exposed to rat lung parenchymal strips which were then challenged with arachidonic acid. This tissue is known to contain both non-specific esterase activity as well as to convert arachidonic acid to thromboxane (via a cyclooxygenase dependent pathway) which is then ultimately responsible for the smooth muscle contraction observed in this assay.

A short description of data set [6]: freshly obtained normal human plasma. Conditions: 37° C., up to 180 minutes.
Setting [7] is: Table II, MOS-AAPV-pNA 0.5 mM, pH 7.5, 25 C.

mu-opiate receptor, sequence (A0ACM8Q262 1-400): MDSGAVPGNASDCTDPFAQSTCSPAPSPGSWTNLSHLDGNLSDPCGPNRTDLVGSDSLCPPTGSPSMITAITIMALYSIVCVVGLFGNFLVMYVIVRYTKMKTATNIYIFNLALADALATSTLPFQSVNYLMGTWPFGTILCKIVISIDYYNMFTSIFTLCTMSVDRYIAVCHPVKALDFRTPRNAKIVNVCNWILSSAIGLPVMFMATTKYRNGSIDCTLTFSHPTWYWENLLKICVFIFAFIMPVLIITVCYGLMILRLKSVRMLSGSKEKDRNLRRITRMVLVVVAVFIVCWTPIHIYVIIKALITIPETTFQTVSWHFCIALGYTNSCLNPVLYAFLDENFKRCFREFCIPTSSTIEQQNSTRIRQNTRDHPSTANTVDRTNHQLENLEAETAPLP

`N=C(N)NCCC[C@@H](N)C(=O)N[C@@H](CCCNC(=N)N)C(=O)N1CCC[C@H]1C(=O)N1C[C@H](O)C[C@H]1C(=O)NCC(=O)N[C@@H](Cc1cccs1)C(=O)N[C@@H](CS)C(=O)N1Cc2ccccc2C[C@@H]1C(=O)N1[C@H](C(=O)N[C@@H](CCCNC(=N)N)C(=O)O)C[C@@H]2CCCC[C@@H]21` [CP-0347, D R-R-P-J-G-Thi-C-D Tic-Oic-R] (H-[dR]RP[Hyp]G[2Thi]C[dTic][Oic]R-OH) had a Kb on BK2-receptor [1] of 0.316 nM.
As to `CN1CC[C@]23c4c5ccc(O)c4O[C@H]2C(=O)CC[C@@]3(O)[C@H]1C5` [oxymorphone], the “effect on licking behavior (both phases) in the formalin test” value in data set [2] (50 ul formalin in hind limb foot pad) is “reduces both phases of the licking behavior”. Moreover, the “dose at which both phases of the pain response are blocked” value in data set [2] (mouse formalin test) came out at 0.9 µmol/kg. Besides, in data set [2], the “narcotic / behavioral effects in the formalin test” value was “significant behavioral obtundation resulting in catalepsy and frank respiratory depression”. Besides, the “pA2 -Rat Uterus” value at BK2-receptor [3] (Table I, BK2-receptor activity) was “inactive”.
For `CC(C)C[C@H](NC(=O)[C@@H](Cc1ccccc1)NC(=O)[C@H](CSC1CC(=O)N(CCCCCCN2C(=O)CC(SCCNC3CC[C@@]4(O)[C@H]5Cc6ccc(O)c7c6[C@@]4(CCN5C)[C@H]3O7)C2=O)C1=O)NC(=O)[C@H](Cc1ccccc1)NC(=O)CNC(=O)[C@@H]1C[C@@H](O)CN1C(=O)[C@@H]1CCCN1C(=O)[C@H](CCCNC(=N)N)NC(=O)[C@H](N)CCCNC(=N)N)C(=O)N[C@@H](CCCNC(=N)N)C(=O)O` (stereo partly shown) [CP-0494] (H-[dR]RP[Hyp]GFC(X1)[dF]LR-OH), in data set [2], the “narcotic / behavioral effects in the formalin test” value is listed as “no observable narcotic effects”. The compound further gave a Kb at BK2-receptor [1] of 3.98 nM.
For `CC(C)C[C@H](NC(=O)[C@@H](Cc1ccccc1)NC(=O)[C@H](CS)NC(=O)[C@H](Cc1ccccc1)NC(=O)CNC(=O)[C@@H]1C[C@@H](O)CN1C(=O)[C@@H]1CCCN1C(=O)[C@H](CCCNC(=N)N)NC(=O)[C@H](N)CCCNC(=N)N)C(=O)N[C@@H](CCCNC(=N)N)C(=O)O` [CP-0126, D R-R-P-J-G-F-C-D F-L-R] (HELM PEPTIDE1{[dR].R.P.[Hyp].G.F.C.[dF].L.R}$$$$V2.0), in data set [4] (setting [7]), the “Ki^ss (HNE)” value is “inactive”.
In turn, `COc1ccc2c(c1)c(CC(=O)OCCCCCCN1C(=O)CC(SC[C@H](NC(=O)[C@H](Cc3ccccc3)NC(=O)CNC(=O)[C@@H]3C[C@@H](O)CN3C(=O)[C@@H]3CCCN3C(=O)[C@H](CCCNC(=N)N)NC(=O)[C@H](N)CCCNC(=N)N)C(=O)N[C@H](Cc3ccccc3)C(=O)N[C@@H](CC(C)C)C(=O)N[C@@H](CCCNC(=N)N)C(=O)O)C1=O)c(C)n2C(=O)c1ccc(Cl)cc1` (stereo partly shown) [CP-0460] (H-[dR]RP[Hyp]GFC(X7)[dF]LR-OH) showed a Kb on BK2-receptor [1] of roughly 15.8 nM.
Same read-out and setting: the figure for `COc1ccc2c3c1O[C@H]1C(NCCSC4CC(=O)N(CCCCCCN5C(=O)CC(SC[C@H](NC(=O)[C@H](Cc6ccccc6)NC(=O)CNC(=O)[C@@H]6C[C@@H](O)CN6C(=O)[C@@H]6CCCN6C(=O)[C@H](CCCNC(=N)N)NC(=O)[C@H](N)CCCNC(=N)N)C(=O)N[C@H](Cc6ccccc6)C(=O)N[C@@H](CC(C)C)C(=O)N[C@@H](CCCNC(=N)N)C(=O)O)C5=O)C4=O)CC[C@@]4(O)[C@@H](C2)N(C)CC[C@]314` (stereo partly shown) [CP-0477] (H-[dR]RP[Hyp]GFC(X9)[dF]LR-OH) is 12.6 nM.
With `CC(C)C[C@H](NC(=O)[C@@H](Cc1ccccc1)NC(=O)[C@H](CSC1CC(=O)N(CCCCCCOC(=O)CCCS(=O)(=O)c2ccc(OC(=O)C(C)(C)c3ccc(C(C)(C)C)cc3)cc2)C1=O)NC(=O)[C@H](Cc1ccccc1)NC(=O)CNC(=O)[C@@H]1C[C@@H](O)CN1C(=O)[C@@H]1CCCN1C(=O)[C@H](CCCNC(=N)N)NC(=O)[C@H](N)CCCNC(=N)N)C(=O)N[C@@H](CCCNC(=N)N)C(=O)O` (stereo partly shown) [CP-0502] (H-[dR]RP[Hyp]GFC(X4)[dF]LR-OH), in data set [4], the Ki (as a rule, the equilibrium dissociation constant of an inhibitor or competing ligand from its target) turned out to be 6.6 nM. Further, the half-life (commonly how long it takes for the measured level to halve) in the data set “in vitro” (human, plasma (freshly obtained normal human plasma)) is roughly 1.88 h. For the same compound, the “hydrolysis in human plasma (HPLC)” value in “in vitro” (normal human plasma, 37° C., to CP-0487 and its des-Arg9 derivative) is given as “readily hydrolyzed”. The same compound showed a Kb at BK2-receptor [1] of 31.6 nM.
In the case of `COc1ccc2c3c1O[C@H]1C(=O)CC[C@@]4(O)[C@@H](C2)N(C)CC[C@]314` [oxycodone], on mu-opiate receptor, the “activity in guinea pig ileum assay” value was “neither oxycodone nor the heterodimers derived from oxycodone (CP-0477 and CP-0488) showed any activity”. Also, on BK2-receptor [3] (Table I, BK2-receptor activity), the “pA2 -Rat Uterus” value is “inactive”.
As to `COc1ccc2c(c1)c(CC(=O)O)c(C)n2C(=O)c1ccc(Cl)cc1` [indomethacin], the “log dose ratio shift” value in data set [5] was 0.998+/-0.425. Also, at BK2-receptor [3] (intact compound), the “pA2, standard rat uterus assay” value is reported as “no effect on this assay at any concentration”.
Turning to `COc1ccc2c3c1O[C@H]1C(NC(=O)CNC(=O)CCSC4CC(=O)N(CCCCCCN5C(=O)CC(SC[C@H](NC(=O)[C@H](Cc6ccccc6)NC(=O)CNC(=O)[C@@H]6C[C@@H](O)CN6C(=O)[C@@H]6CCCN6C(=O)[C@H](CCCNC(=N)N)NC(=O)[C@H](N)CCCNC(=N)N)C(=O)N[C@H](Cc6ccccc6)C(=O)N[C@@H](CC(C)C)C(=O)N[C@@H](CCCNC(=N)N)C(=O)O)C5=O)C4=O)CC[C@@]4(O)[C@@H](C2)N(C)CC[C@]314` (stereo partly shown) [CP-0488] (H-[dR]RP[Hyp]GFC(X13)[dF]LR-OH), at BK2-receptor [1], the Kb was 6.31 nM.
Turning to `CC(C)(C)c1ccc(C(C)(C)C(=O)Oc2ccc(CCCC(=O)O)cc2)cc1` [CE-1218, 4-(3'-carboxy-propyl)phenyl 4-tert-butylphenylisobutyrate], the Ki in data set [4] (Table II, MOS-AAPV-pNA 0.5 mM, pH 7.5, 25 C, read-out: Ki^ss (HNE)) was 10.5 nM. Moreover, the “pA2 -Rat Uterus” value at BK2-receptor [3] (Table II) was “inactive”.
For the compound D R-R-P-J-G-F-C-D F-L-R, in data set [6], the cleaved bond result is reported as “Leu8-Arg9” and the fragment found result is given as “CP-0487”.
With `CC(C)C[C@H](NC(=O)[C@@H](Cc1ccccc1)NC(=O)[C@H](CSC1CC(=O)N(CCCCCCO)C1=O)NC(=O)[C@H](Cc1ccccc1)NC(=O)CNC(=O)[C@@H]1C[C@@H](O)CN1C(=O)[C@@H]1CCCN1C(=O)[C@H](CCCNC(=N)N)NC(=O)[C@H](N)CCCNC(=N)N)C(=O)N[C@@H](CCCNC(=N)N)C(=O)O` (stereo partly shown) [CP-0487] (H-[dR]RP[Hyp]GFC(X20)[dF]LR-OH), in data set [4] (setting [7]), the “Ki^ss (HNE)” value was “inactive”. On BK2-receptor [1], this compound had a Kb of 3.98 nM.

The values are drawn from patent publication US5863899A (priority 1994, dated 1999).
